The record followed here is patent publication US11339171B2, “MDM2 inhibitors” (Gan & Lee Pharmaceuticals, priority 2017, dated 2022).

The target of the experiment is T1, MDM2 (Homo sapiens, UniProt Q00987).
T1 construct: made in house
Kind of experiment: Inhibition test of MDM2-P53 (GST-MDM2, Biotin-P53, Anti-GST-Tb, SA-XL665). The format is binding. The settings on record: for inhibitory effect on MDM2 compared with positive control compound HDM201: labels are Example numbers, the compounds with S-configuration are meant. Summed up:
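HTRF-type assay using 4 nM GST-MDM2 (final), Biotin-P53, SA-XL665 and anti-GST-Tb in PBS with 0.1% BSA, 5 mM DTT and 1 mM AEBSF. Compounds in 5-fold serial dilutions over twelve points; incubation 90 min at 25° C with shaking before plate-reader read-out.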

As usually defined, the IC50 is the concentration that inhibits the measured activity by half. The low end stands for inhibition by little substance, the high end for a need for much substance.

T1 sequence (Q00987 whole entry): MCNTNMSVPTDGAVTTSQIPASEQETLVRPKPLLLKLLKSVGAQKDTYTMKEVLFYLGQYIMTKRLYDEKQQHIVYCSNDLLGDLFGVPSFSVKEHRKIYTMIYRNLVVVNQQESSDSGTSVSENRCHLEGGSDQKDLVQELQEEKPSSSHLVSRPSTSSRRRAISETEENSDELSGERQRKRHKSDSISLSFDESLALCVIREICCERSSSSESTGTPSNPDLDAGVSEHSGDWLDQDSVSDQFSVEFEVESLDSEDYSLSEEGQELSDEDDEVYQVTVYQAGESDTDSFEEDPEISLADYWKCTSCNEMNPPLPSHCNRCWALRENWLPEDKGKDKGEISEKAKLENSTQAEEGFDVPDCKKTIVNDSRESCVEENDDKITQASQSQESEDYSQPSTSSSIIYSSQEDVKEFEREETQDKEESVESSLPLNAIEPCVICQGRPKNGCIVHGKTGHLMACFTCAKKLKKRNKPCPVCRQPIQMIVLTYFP

In the case of `COc1nc(OCCF)ncc1-c1nc2c(n1C(C)C)C1(C(=O)Nc3cc(Cl)ccc31)N(c1cc(Cl)ccc1C)C2=O` (centres unmarked) [Example 140, 6-chloro-5′-(5-chloro-2-methylphenyl)-2′-(2-(2-fluoroethoxy)-4-methoxypyrimidin-5-yl)-3′-isopropyl-3′H-spiro[dihydroindole-3,4′-pyrrolo[3,4-d]imidazole]-2,6′(5′H)-dione], the “inhibitory effect on MDM2 compared with positive control compound HDM201” value is “better”.

For the compound `CCc1ccccc1-c1nc2c(n1C(C)C)[C@]1(C(=O)Nc3cc(Cl)ccc31)N(c1cc(Cl)ccc1C)C2=O` [Example R-7, (R)-6-chloro-5′-(5-chloro-2-methylphenyl)-2′-(2-ethylphenyl)-3′-isopropylisopropyl-3′H-spiro[dihydroindole-3,4′-pyrrolo[3,4-d]imidazole]-2,6′(5′H)-dione], the midpoint of inhibition, the IC50, lay at 36000 nM.

`COc1nc(OCCF)ncc1-c1nc2c(n1C(C)C)[C@]1(C(=O)Nc3cc(Cl)ccc31)N(c1cc(Cl)cnc1C)C2=O` [Example R-170, (R)-6-chloro-5′-(5-chloro-2-methylpyridin-3-yl)-2′-(2-(2-fluoroethoxy)-4-methoxypyrimidin-5-yl)-3′-isopropyl-3′H-spiro[dihydroindole-3,4′-pyrrolo[3,4-d]imidazole]-2,6′(5′H)-dione] gave an IC50 of 235 nM.

`CCc1ccc(OC)c(-c2nc3c(n2C(C)C)[C@]2(C(=O)Nc4cc(Cl)ccc42)N(c2cc(Cl)ccc2C)C3=O)c1` [Example R-37, (R)-6-chloro-5′-(5-chloro-2-methylphenyl)-2′-(5-ethyl-2-methoxyphenyl)-3′-isopropyl-3′H-spiro[dihydroindole-3,4′-pyrrolo[3,4-d]imidazole]-2,6′(5′H)-dione] came in with an IC50 of 3110 nM.

Consider `COc1cc(C(F)(F)F)ncc1-c1nc2c(n1C(C)C)[C@]1(C(=O)Nc3cc(Cl)ccc31)N(c1cc(Cl)ccc1C)C2=O` [Example R-138, (R)-6-chloro-5′-(5-chloro-2-methylphenyl)-3′-isopropyl-2′-(4-methoxy-6-(trifluoromethyl)pyridin-3-yl)-3′H-spiro[dihydroindole-3,4′-pyrrolo[3,4-d]imidazole]-2,6′(5′H)-dione], for which 132 nM corresponded to half-maximal inhibition (IC50). This IC50 is about 24-fold lower than that of the compound before.

`COc1cc(C(N)=O)ccc1-c1nc2c(n1C(C)C)[C@]1(C(=O)Nc3cc(Cl)ccc31)N(c1cc(Cl)ccc1C)C2=O` [Example R-77, (R)-4-(6-chloro-5′-(5-chloro-2-methylphenyl)-3′-isopropyl-2,6′-dioxo-5′,6′-dihydro-3′H-spiro[dihydroindole-3,4′-pyrrolo[3,4-d]imidazole]-2′-yl)-3-methoxybenzamide] yielded an IC50 of 139 nM.

`CCN(CC)c1ccc(-c2nc3c(n2C(C)C)[C@]2(C(=O)Nc4cc(Cl)ccc42)N(c2cc(Cl)ccc2C)C3=O)c(OC)c1` [Example R-105, (R)-6-chloro-5′-(5-chloro-2-methylphenyl)-2′-(4-(diethylamino)-2-methoxyphenyl)-3′-isopropyl-3′H-spiro[dihydroindole-3,4′-pyrrolo[3,4-d]imidazole]-2,6′(5′H)-dione] had an IC50 of 343 nM.

With `COc1ccc(-c2nc3c(n2C(C)C)[C@]2(C(=O)Nc4cc(Cl)ccc42)N(c2cc(Cl)cn(C)c2=O)C3=O)c(OC)c1` [Example R-39, (R)-6-chloro-5′-(5-chloro-1-methyl-2-oxo-1,2-dihydropyridin-3-yl)-2′-(2,4-dimethoxyphenyl)-3′-isopropyl-3′H-spiro[dihydroindole-3,4′-pyrrolo[3,4-d]imidazole]-2,6′(5′H)-dione], the midpoint of inhibition, the IC50, lay at 1850 nM.

`COc1cc(OCC(F)F)ncc1-c1nc2c(n1C(C)C)[C@]1(C(=O)Nc3cc(Cl)ccc31)N(c1cc(Cl)ccc1C)C2=O` [Example R-153, (R)-6-chloro-5′-(5-chloro-2-methylphenyl)-2′-(6-(2,2-difluoroethoxy)-4-methoxypyridin-3-yl)-3′-isopropyl-3′H-spiro[dihydroindole-3,4′-pyrrolo[3,4-d]imidazole]-2,6′(5′H)-dione] had an IC50 of 31.1 nM.

As to `COc1ccc(CC(=O)N(C)C)cc1-c1nc2c(n1C(C)C)C1(C(=O)Nc3cc(Cl)ccc31)N(c1cc(Cl)ccc1C)C2=O` (centres unmarked) [Example 70, 2-(3-(6-chloro-5′-(5-chloro-2-methylphenyl)-3′-isopropyl-2,6′-dioxo-5′,6′-dihydro-3′H-spiro[dihydroindole-3,4′-pyrrolo[3,4-d]imidazole]-2′-yl)-4-methoxyphenyl)-N,N-dimethylacetamide], the “inhibitory effect on MDM2 compared with positive control compound HDM201” value was “better”.

`COc1cc(C2CC2)ncc1-c1nc2c(n1C(C)C)[C@]1(C(=O)Nc3cc(Cl)ccc31)N(c1cccc(Cl)c1)C2=O` [Example R-106, (R)-6-chloro-5′-(3-chlorophenyl)-2′-(6-cyclopropyl-4-methoxypyridin-3-yl)-3′-isopropyl-3′H-spiro[dihydroindole-3,4′-pyrrolo[3,4-d]imidazole]-2,6′(5′H)-dione] displayed an IC50 of 481 nM.

In turn, `COc1cc(C(C)C)ccc1-c1nc2c(n1C(C)C)[C@]1(C(=O)Nc3cc(Cl)ccc31)N(c1cccc(Cl)c1)C2=O` [Example R-93, (R)-6-chloro-5′-(3-chlorophenyl)-3′-isopropyl-2′-(4-isopropyl-2-methoxyphenyl)-3′H-spiro[dihydroindole-3,4′-pyrrolo[3,4-d]imidazole]-2,6′(5′H)-dione] returned an IC50 of 658 nM.

For the compound `COc1cc(OC)c(-c2nc3c(n2C(C)C)C2(C(=O)Nc4cc(Cl)ccc42)N(c2cc(F)cc(Cl)c2)C3=O)cn1` (centres unmarked) [Example 175, 6-chloro-5′-(3-chloro-5-fluorophenyl)-2′-(4,6-dimethoxypyridin-3-yl)-3′-isopropyl-3′H-spiro[dihydroindole-3,4′-pyrrolo[3,4-d]imidazole]-2,6′(5′H)-dione], the “inhibitory effect on MDM2 compared with positive control compound HDM201” value is recorded as “better”.

In the case of `COc1nc(C2CC2)ncc1-c1nc2c(n1C(C)C)[C@]1(C(=O)Nc3cc(Cl)ccc31)N(c1cc(F)cc(Cl)c1)C2=O` [Example R-174, (R)-6-chloro-5′-(3-chloro-5-fluorophenyl)-2′-(2-cyclopropyl-4-methoxypyrimidin-5-yl)-3′-isopropyl-3′H-spiro[dihydroindole-3,4′-pyrrolo[3,4-d]imidazole]-2,6′(5′H)-dione], the IC50 was found to be 515 nM.

For the compound `COc1cc(C(C)C)ncc1-c1nc2c(n1C(C)C)[C@]1(C(=O)Nc3cc(Cl)ccc31)N(c1cc(Cl)cnc1C)C2=O` [Example R-166, (R)-6-chloro-5′-(5-chloro-2-methylpyridin-3-yl)-3′-isopropyl-2′-(6-isopropyl-4-methoxypyridin-3-yl)-3′H-spiro[dihydroindole-3,4′-pyrrolo[3,4-d]imidazole]-2,6′(5′H)-dione], 957 nM corresponded to half-maximal inhibition (IC50).

`COc1ncc(-c2nc3c(n2C(C)C)[C@@]2(C(=O)Nc4cc(Cl)ccc42)N(c2ccc(C(N)=O)c(Cl)c2)C3=O)c(OC)n1` [Example S-60, (S)-2-chloro-4-(6-chloro-2′-(2,4-dimethoxypyrimidin-5-yl)-3′-isopropyl-2,6′-dioxo-3′,6′-dihydro-5′H-spiro[dihydroindole-3,4′-pyrrolo[3,4-d]imidazole]-5′-yl)benzamide]: the IC50 was determined as 4.81 nM.

With `COc1cc(C2CC2)ncc1-c1nc2c(n1C(C)C)[C@]1(C(=O)Nc3cc(Cl)ccc31)N(c1cc(F)cc(Cl)c1)C2=O` [Example R-176, (R)-6-chloro-5′-(3-chloro-5-fluorophenyl)-2′-(6-cyclopropyl-4-methoxypyridin-3-yl)-3′-isopropyl-3′H-spiro[dihydroindole-3,4′-pyrrolo[3,4-d]imidazole]-2,6′(5′H)-dione], the IC50 came out at 321 nM.

Regarding `COc1nc(OCCF)ncc1-c1nc2c(n1C(C)C)C1(C(=O)Nc3cc(Cl)ccc31)N(c1cc(Cl)cnc1C)C2=O` (centres unmarked) [Example 170, 6-chloro-5′-(5-chloro-2-methylpyridin-3-yl)-2′-(2-(2-fluoroethoxy)-4-methoxypyrimidin-5-yl)-3′-isopropyl-3′H-spiro[dihydroindole-3,4′-pyrrolo[3,4-d]imidazole]-2,6′(5′H)-dione], the “inhibitory effect on MDM2 compared with positive control compound HDM201” value is “better”.

As for `COc1cc(OC2CC2)ncc1-c1nc2c(n1C(C)C)[C@]1(C(=O)Nc3cc(Cl)ccc31)N(c1cc(Cl)ccc1C)C2=O` [Example R-110, (R)-6-chloro-5′-(5-chloro-2-methylphenyl)-2′-(6-cyclopropoxy-4-methoxypyridin-3-yl)-3′-isopropyl-3′H-spiro[dihydroindole-3,4′-pyrrolo[3,4-d]imidazole]-2,6′(5′H)-dione], the IC50 was found to be 704 nM.

Regarding `COc1ccccc1-c1nc2c(n1C(C)C)C1(C(=O)Nc3cc(Cl)ccc31)N(c1cc(Cl)c(=O)n(C)c1)C2=O` (centres unmarked) [Example 53, 6-chloro-5′-(5-chloro-1-methyl-6-oxo-1,6-dihydropyridin-3-yl)-3′-isopropyl-2′-(2-methoxyphenyl)-3′H-spiro[dihydroindole-3,4′-pyrrolo[3,4-d]imidazole]-2,6′(5′H)-dione], the “inhibitory effect on MDM2 compared with positive control compound HDM201” value is “better”.

`COc1ncc(-c2nc3c(n2C(C)C)[C@]2(C(=O)Nc4cc(Cl)ccc42)N(c2cc(Cl)ccc2C#N)C3=O)c(OC)n1` [Example R-151, (R)-4-chloro-2-(6-chloro-2′-(2,4-dimethoxypyrimidin-5-yl)-3′-isopropyl-2,6′-dioxo-3′,6′-dihydro-5′H-spiro[dihydroindole-3,4′-pyrrolo[3,4-d]imidazole]-5′-yl)benzonitrile] had an IC50 of 5370 nM. This lies in the single-digit micromolar range.

`COc1ccc(C)cc1-c1nc2c(n1C(C)C)C1(C(=O)Nc3cc(Cl)ccc31)N(c1cc(Cl)ccc1C)C2=O` (centres unmarked) [Example 62, 6-chloro-5′-(5-chloro-2-methylphenyl)-3′-isopropyl-2′-(2-methoxy-5-methylphenyl)-3′H-spiro[dihydroindole-3,4′-pyrrolo[3,4-d]imidazole]-2,6′(5′H)-dione]: the “inhibitory effect on MDM2 compared with positive control compound HDM201” value is on record as “better”.

As for `COc1nc(C)ncc1-c1nc2c(n1C(C)C)[C@]1(C(=O)Nc3cc(Cl)ccc31)N(c1cc(Cl)ccc1C)C2=O` [Example R-118, (R)-6-chloro-5′-(5-chloro-2-methylphenyl)-3′-isopropyl-2′-(4-methoxy-2-methylpyrimidin-5-yl)-3′H-spiro[dihydroindole-3,4′-pyrrolo[3,4-d]imidazole]-2,6′(5′H)-dione], the IC50 came to 436 nM. This lies in the sub-micromolar range.
